≈ marks a conversion by molar mass, not a printed value.
Tests used:
[1] = Selectivity index, ratio of CC50 for african green monkey Vero cells to MIC for Mycobacterium tuberculosis H37Rv; type: toxicity, cell-based; conditions: read-out: Selectivity Index
[2] = tested on: Mycobacterium tuberculosis; assay: Antitubercular activity against Mycobacterium tuberculosis H37Rv measured on day 4 by microplate Alamar blue assay; type: functional; conditions: 96 h
[3] = Cytotoxicity against african green monkey Vero cells after 72 hrs by MTT assay; type: cell-based; conditions: chlorocebus sabaeus

In the case of `Cc1ccccc1N1CCN(C(=O)c2cc3c4ccccc4n(C)c3c(-c3ccccc3)n2)CC1`, the selectivity ratio [1] is reported as > 20.8, the MIC90 [2] is reported as 5.2 µM (≈ 2.4 µg/mL) and the CC50 at 72 h [3] is reported as > 50 µg/mL.
For `Cn1c2ccccc2c2cc(C(=O)N3CCN(c4ccc(Cl)cc4)CC3)nc(-c3ccccc3)c21`, the selectivity ratio [1] was > 1.3, the MIC90 [2] was 83.3 µM (≈ 40.1 µg/mL) and the CC50 at 72 h [3] was > 50 µg/mL.
With `Cn1c2ccccc2c2cc(C(=O)N3CCN(c4ccccc4Cl)CC3)nc(-c3ccccc3)c21` the selectivity ratio [1] was > 20.8, the MIC90 [2] was 5 µM (≈ 2.4 µg/mL) and the CC50 at 72 h [3] was > 50 µg/mL.
With `COc1ccccc1N1CCN(C(=O)c2cc3c4ccccc4n(C)c3c(-c3ccccc3)n2)CC1` the selectivity ratio [1] was > 25, the MIC90 [2] was 3.5 µM (≈ 1.67 µg/mL) and the CC50 at 72 h [3] was > 50 µg/mL.
For `Cn1c2ccccc2c2cc(C(=O)N3CCN(c4ccncc4)CC3)nc(-c3ccccc3)c21`, the selectivity ratio [1] was 4.5, the MIC90 [2] was 9.8 µM (≈ 4.39 µg/mL) and the CC50 at 72 h [3] was 18 µg/mL (≈ 40.2 µM).
With `Cn1c2ccccc2c2cc(C(=O)N3CCN(c4ccccc4)CC3)nc(-c3ccccc3)c21` the selectivity ratio [1] was > 4.1, the MIC90 [2] was 27.4 µM (≈ 12.2 µg/mL) and the CC50 at 72 h [3] was > 50 µg/mL.
In the case of `Cn1c2ccccc2c2cc(C(=O)N3CCN(c4cccc(Cl)c4)CC3)nc(-c3ccccc3)c21`, the selectivity ratio [1] is reported as > 1.3, the MIC90 [2] is reported as 79.6 µM (≈ 38.3 µg/mL) and the CC50 at 72 h [3] is reported as > 50 µg/mL.
For `CO[C@H]1/C=C/O[C@@]2(C)Oc3c(C)c(O)c4c(O)c(c(/C=N/N5CCN(C)CC5)c(O)c4c3C2=O)NC(=O)/C(C)=C\C=C\[C@H](C)[C@H](O)[C@@H](C)[C@@H](O)[C@@H](C)[C@H](OC(C)=O)[C@@H]1C` [RIFAMPIN], the selectivity ratio [1] was > 1360, the MIC90 [2] was 0.13 µM (≈ 0.107 µg/mL) and the CC50 at 72 h [3] was > 150 µg/mL.
In the case of `Cc1ccc(N2CCN(C(=O)c3cc4c5ccccc5n(C)c4c(-c4ccccc4)n3)CC2)cc1`, the selectivity ratio [1] is reported as > 11.6, the MIC90 [2] is reported as 9.3 µM (≈ 4.28 µg/mL) and the CC50 at 72 h [3] is reported as > 50 µg/mL.
With `Cn1c2ccccc2c2cc(C(=O)N3CCN(Cc4ccccc4)CC3)nc(-c3ccccc3)c21` the selectivity ratio [1] was > 12.2, the MIC90 [2] was 8.9 µM (≈ 4.1 µg/mL) and the CC50 at 72 h [3] was > 50 µg/mL.
In the case of `Cn1c2ccccc2c2cc(C(=O)N3CCN(c4ccccc4F)CC3)nc(-c3ccccc3)c21`, the selectivity ratio [1] is reported as > 18.5, the MIC90 [2] is reported as 5.8 µM (≈ 2.69 µg/mL) and the CC50 at 72 h [3] is reported as > 50 µg/mL.
For `Cn1c2ccccc2c2cc(C(=O)N3CCN(c4cccc(Cl)c4Cl)CC3)nc(-c3ccccc3)c21`, the selectivity ratio [1] was > 33.3, the MIC90 [2] was 2.9 µM (≈ 1.49 µg/mL) and the CC50 at 72 h [3] was > 50 µg/mL.
With `Cn1c2ccccc2c2cc(C(=O)N3CCN(c4ccc(F)cc4)CC3)nc(-c3ccccc3)c21` the selectivity ratio [1] was > 19.2, the MIC90 [2] was 5.6 µM (≈ 2.6 µg/mL) and the CC50 at 72 h [3] was > 50 µg/mL.
In the case of `Cn1c2ccccc2c2cc(C(=O)N3CCN(c4ccccn4)CC3)nc(-c3ccccc3)c21`, the selectivity ratio [1] is reported as > 11.4, the MIC90 [2] is reported as 9.8 µM (≈ 4.39 µg/mL) and the CC50 at 72 h [3] is reported as > 50 µg/mL.
For `COc1ccc(N2CCN(C(=O)c3cc4c5ccccc5n(C)c4c(-c4ccccc4)n3)CC2)cc1`, the selectivity ratio [1] was > 8.6, the MIC90 [2] was 10.1 µM (≈ 4.81 µg/mL) and the CC50 at 72 h [3] was > 50 µg/mL.

From ChEMBL document CHEMBL3734709, “Design, synthesis and evaluation of diarylpiperazine derivatives as potent anti-tubercular agents” (Eur J Med Chem, 2015)
